# Biological target: T1, human recombinant mGluR5 (Homo sapiens, UniProt P41594)
# T1 construct: expressed in transfected cells; host or cells: HEK 293
# Experiment: positive modulation of mGluR5, calcium based FLIPR assay
# Conditions: HEK 293 cell line expressing human recombinant mGluR5; EC50 of the modulation from peak Ca fluorescence signal after glutamate at approx. 5% basal stimulation
# Description: The positive modulation of mGluR5 is measured in a HEK 293 cell line expressing human recombinant mGluR5 and is detected with calcium based FLIPR assay. The cells are cultured with DMEM supplemented with 10% FCS, 2 μg/mL tetracycline, 100 μg/mL hygromycin and 500 μg/mL geneticin. The cell culture media is exchanged for tetracycline-free cell culture media 3-7 days before the assay. One day before the assay the cell culture medium is exchanged to DMEM without glutamine and phenol red and supplemented with 10% FCS, 100 μg/mL hygromycin and 500 μg/mL geneticin. On the assay day, the medium of the subconfluent cultures is removed and the cells are detached by addition of 2.5 ml EDTA (0.02%) per 175 cm2 culture flask for 1 minute. The cells are resuspend in Ringer solution (140 mM NaCl, 5 mM KCl, 2.5 mM CaCl2, 1.5 mM MgCl2, 5 mM Glucose, 10 mM Hepes; adjusted to pH 7.4 with NaOH), pooled and Ringer solution added to adjust the volume to 50 mL. The cell suspension is centrifuged for […] at 1500 U/min (425 g). The supernatant is removed and the cells washed a second time with 50 ml fresh Ringer solution and centrifuged again as before. The supernatant is again removed and the pellet resuspended in Ringer solution to 1,000,000 cells/ml (1×10^6 cells/mL). The cells are plated onto BD BioCoat Poly-D-Lysine 384 well plates (20.000 cells/well; 20 μl/well). The lid covered plates are then incubated until use at 37° C./10% CO2. For dye loading, 20 μl of Calcium-4 assay kit solution (prepared according to the manufacturer's description in Ringer solution) are added to the cells and the plates are incubated for […] 37° C. and then […] at room temperature.
# Controls, Compound Dilution and Assay Execution:
# Each assay plate contained wells with “high” and “low” controls:
# Low controls 1% DMSO/ringer solution+basal glutamate activation (defined as 100% CTL).
# High controls 10 μM CDPPB+basal glutamate activation (defined as 200% CTL).
# Test compounds are dissolved and diluted in DMSO to 100-fold the desired concentrations. In a second step, the compounds are diluted in Ringer solution such that the compounds are 4-fold more concentrated than the desired final assay concentration. The final DMSO concentration was 1%.
# 20 μl of each compound solution are then transferred to the assay plate and the Ca2+ kinetic is measured to determine any intrinsic compound activity. After 5 mM incubation in the FLIPR device, the second stimulation with 20 μl of glutamate in Ringer solution (glutamate concentration adjusted to approximately 5% basal stimulation of the maximal possible glutamate effect) is added and the kinetic Ca2+ response of the wells was measured for the modulation effect.
# The peak height of the Ca release related fluorescence signal (9-66) is used for the EC50. The EC50 of the modulation is calculated over a nonlinear regression with GraphPad Prism (Table 1).
# T1 sequence (P41594 21-1212): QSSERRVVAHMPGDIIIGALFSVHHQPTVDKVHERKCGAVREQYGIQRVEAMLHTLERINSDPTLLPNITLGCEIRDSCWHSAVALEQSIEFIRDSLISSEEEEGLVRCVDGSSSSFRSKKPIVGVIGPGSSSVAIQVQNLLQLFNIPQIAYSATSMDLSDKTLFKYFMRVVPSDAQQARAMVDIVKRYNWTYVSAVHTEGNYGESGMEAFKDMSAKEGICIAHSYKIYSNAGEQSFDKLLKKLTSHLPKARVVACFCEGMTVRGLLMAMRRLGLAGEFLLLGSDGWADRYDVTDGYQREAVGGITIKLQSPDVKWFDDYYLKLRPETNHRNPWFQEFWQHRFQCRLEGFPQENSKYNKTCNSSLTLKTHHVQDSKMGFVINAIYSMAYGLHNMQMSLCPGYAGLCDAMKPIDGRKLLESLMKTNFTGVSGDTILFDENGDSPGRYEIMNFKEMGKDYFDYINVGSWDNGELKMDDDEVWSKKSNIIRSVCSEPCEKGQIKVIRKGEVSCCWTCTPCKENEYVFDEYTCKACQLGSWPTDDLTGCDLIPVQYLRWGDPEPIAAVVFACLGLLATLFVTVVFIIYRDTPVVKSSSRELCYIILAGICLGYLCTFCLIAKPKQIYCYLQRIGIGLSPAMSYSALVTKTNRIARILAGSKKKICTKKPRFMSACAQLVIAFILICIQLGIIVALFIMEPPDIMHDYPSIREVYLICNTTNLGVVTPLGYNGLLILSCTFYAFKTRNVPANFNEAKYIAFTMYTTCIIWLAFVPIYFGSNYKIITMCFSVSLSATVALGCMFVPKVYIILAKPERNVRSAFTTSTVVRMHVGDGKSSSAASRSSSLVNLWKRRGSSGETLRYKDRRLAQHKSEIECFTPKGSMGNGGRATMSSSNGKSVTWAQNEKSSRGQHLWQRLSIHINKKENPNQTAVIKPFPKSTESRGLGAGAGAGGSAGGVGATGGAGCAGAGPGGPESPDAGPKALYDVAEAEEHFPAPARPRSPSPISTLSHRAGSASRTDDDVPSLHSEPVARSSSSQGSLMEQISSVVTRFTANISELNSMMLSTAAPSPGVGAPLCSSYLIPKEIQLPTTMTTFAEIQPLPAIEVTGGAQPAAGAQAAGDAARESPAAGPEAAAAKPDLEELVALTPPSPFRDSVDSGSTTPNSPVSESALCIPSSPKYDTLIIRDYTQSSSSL
row,EC50,SMILES
1,28 nM,COc1cc(C2=CCN(C(=O)Cn3nc(-c4ccc(C)c(C)c4)cc3-c3ccccc3)CC2)ncn1 [Example 7.02.087]
2,125 nM,Cc1cc(-c2cc(-c3ccccc3)n(CC(=O)N3CCc4ccccc4C3)n2)ccc1F [Example 7.01.087]
3,1610 nM,CCc1cc(-c2cccc(C#N)c2)nn1CC(=O)N1CCN(c2nnc(C)o2)CC1 [Example 7.02.187]
4,56 nM,CCc1cc(-c2ccc(F)c(C)c2)nn1CC(=O)N1CCN(c2nccs2)CC1 [Example 7.02.217]
5,3 nM,Cc1nc2c(o1)CN(C(=O)Cn1nc(-c3ccc(F)c(C)c3)cc1-c1ccccc1)C2 [Example 7.02.212]
6,10 nM,Cc1nc2c(o1)CCN(C(=O)Cn1nc(-c3ccc(F)c(C)c3)cc1-c1ccccc1)CC2 [Example 7.02.106]
7,148 nM,CCc1cc(-c2ccc(F)c(C)c2)nn1CC(=O)N1Cc2nc(C)sc2C1 [Example 7.02.025]
8,323 nM,COc1cc(-c2cc(C(C)C)n(CC(=O)N3CCc4nc(N)sc4CC3)n2)ccc1F [Example 7.02.062]
9,92 nM,Cc1nc2c(o1)CN(C(=O)Cn1nc(-c3ccc(F)c(C)c3)cc1C)C2 [Example 7.02.155]
10,59 nM,Cc1nc2c(s1)CCN(C(=O)Cn1nc(-c3cc(C)c(F)cn3)cc1-c1ccccc1)CC2 [Example 7.02.175]
11,14 nM,COc1cnc(C2=CCN(C(=O)Cn3nc(-c4ccc(F)c(C)c4)cc3-c3ccccc3)CC2)nc1 [Example 7.02.101]
12,30 nM,Cc1nc(N2CCN(C(=O)Cn3nc(-c4ccc(OC(F)F)cn4)cc3-c3ccccc3)CC2)no1 [Example 7.02.235]
13,430 nM,CCc1cc(-c2ccc(F)c(C)c2)nn1CC(=O)N1CCC(c2nnc(C)o2)CC1 [Example 7.02.157]
14,236 nM,CCc1cc(-c2ccc(F)c(C)c2)nn1CC(=O)N1CCc2nc(N)sc2C1 [Example 7.01.068]
15,1180 nM,COc1ccc2c(c1)CCN(C(=O)Cn1nc(-c3ccccc3)cc1-c1ccccc1)CC2 [Example 7.01.008]
16,90 nM,Cc1cc(-c2cc(-c3ccccc3)n(CC(=O)N3CCc4nc(N)oc4CC3)n2)ccc1F [Example 7.01.094]
17,398 nM,O=C(Cn1nc(-c2ccccc2)cc1-c1ccccc1)N1CCN(c2cccc(F)c2)C(=O)C1 [Example 7.01.034]
18,49 nM,Cc1ccc(-c2cc(-c3ccccc3)n(CC(=O)N3CCc4nc(N)sc4CC3)n2)cc1C [Example 7.02.094]
19,35 nM,Cc1nc2c(s1)CCN(C(=O)Cn1nc(-c3ccc(F)c(C)c3)cc1C1CC1)CC2 [Example 7.02.035]
20,186 nM,CCc1cc(-c2cc(C)c(F)c(C)c2)nn1CC(=O)N1CCc2nc(C)sc2CC1 [Example 7.02.132]

row,EC50,SMILES
1,42 nM,Cc1nnc(C2CCN(C(=O)Cn3nc(-c4ccc(C)c(C)c4)cc3-c3ccccc3)CC2)o1 [Example 7.02.085]
2,253 nM,COCc1cc(-c2ccc(F)c(C)c2)nn1CC(=O)N1CCc2nc(N)sc2CC1 [Example 7.01.056]
3,173 nM,CCc1cc(-c2ccc(F)c(C)c2)nn1CC(=O)N1CCc2ccc(OC)cc2CC1 [Example 7.01.065]
4,48 nM,COCCCc1cc(-c2ccc(F)c(C)c2)nn1CC(=O)N1CCc2nc(N)sc2CC1 [Example 7.02.104]
5,109 nM,CC(=O)Nc1ccc2c(c1)CCN(C(=O)Cn1nc(-c3ccc(F)c(C)c3)cc1-c1ccccc1)CC2 [Example 7.01.097]
6,87 nM,CCc1cc(-c2ccc(F)c(C)c2)nn1CC(=O)N1CCc2oc(C)nc2C1 [Example 7.01.075]
7,42 nM,Cc1nc2c(s1)CCN(C(=O)Cn1nc(-c3ccc(F)c(C)c3)cc1C(C)C)CC2 [Example 7.02.055]
8,1730 nM,O=C(Cn1nc(-c2ccccc2)cc1-c1ccccc1)N1CCN(Cc2ccccc2)C(=O)C1 [Example 7.02.063]
9,1530 nM,Nc1nnc(C2CCN(C(=O)Cn3nc(-c4ccccc4)cc3-c3ccccc3)CC2)o1 [Example 7.01.033]
10,1220 nM,COc1ccc(-c2cc(C(C)C)n(CC(=O)N3CCN(c4cccc(OC)c4)C(=O)C3)n2)cc1 [Example 7.02.041]
11,26 nM,Cc1nc2c(s1)CN(C(=O)Cn1nc(-c3ccc(C(F)F)cc3)cc1-c1ccccc1)C2 [Example 7.02.260]
12,146 nM,CCc1cc(-c2ccc(C)c(F)c2)nn1CC(=O)N1CCc2nc(C)sc2CC1 [Example 7.02.238]
13,914 nM,N#Cc1ccc(Cl)cc1NC1CCN(C(=O)Cn2nc(-c3ccccc3)cc2-c2ccccc2)CC1 [Example 7.01.053]
14,1540 nM,O=C(Cn1nc(-c2ccccc2)cc1-c1ccccc1)N1CCc2c(F)cccc2C1 [Example 7.01.009]
15,39 nM,Cc1nc(N2CCN(C(=O)Cn3nc(-c4ccc(F)c(C)n4)cc3-c3ccccc3)CC2)no1 [Example 7.02.174]
16,15 nM,Cc1cnc(C2=CCN(C(=O)Cn3nc(-c4ccc(F)c(C)c4)cc3-c3ccccc3)CC2)s1 [Example 7.02.134]
17,829 nM,C=CCNC(=O)Nc1nc2c(s1)CN(C(=O)Cn1nc(-c3ccccc3)cc1-c1ccccc1)CC2 [Example 7.01.012]
18,604 nM,Cc1coc(N2CCN(C(=O)Cn3nc(-c4ccc(F)c(C)c4)cc3C)CC2)n1 [Example 7.02.168]
19,45 nM,Cc1cc(-c2cc(-c3ccccc3)n(CC(=O)N3CCN(C(=O)Oc4ccccc4)CC3)n2)ccc1F [Example 7.02.242]
20,11 nM,Cc1cnc(N2CCN(C(=O)Cn3nc(-c4ccc(OC(F)F)cc4)cc3-c3ccccc3)CC2)o1 [Example 7.02.226]

row,EC50,SMILES
1,652 nM,O=C(Cn1nc(-c2ccccc2)cc1-c1ccccc1)N1CCN(c2nccc3occc23)CC1 [Example 7.01.049]
2,128 nM,CCc1cc(-c2ccc(F)c(C)c2)nn1CC(=O)N1CCc2ccc(C(=O)OC)cc2CC1 [Example 7.01.070]
3,1260 nM,O=C(Cn1nc(-c2ccccc2)cc1-c1ccccc1)N1CCc2nc(-c3ccccc3)ncc2C1 [Example 7.02.005]
4,12 nM,Cc1nc2c(s1)CCN(C(=O)Cn1nc(-c3ccc(F)c(C)c3)cc1CC(C)C)CC2 [Example 7.02.119]
5,108 nM,Cc1nc(N2CCN(C(=O)Cn3nc(-c4ccc(F)c(C)c4)cc3C)CC2)no1 [Example 7.02.154]
6,22 nM,Cc1nc2c(s1)CN(C(=O)Cn1nc(-c3ccc(F)c(C)c3)cc1-c1ccccc1)CC2 [Example 7.01.089]
7,200 nM,Cc1nnc(N2CCN(C(=O)Cn3nc(-c4ccc(OC(F)F)cn4)cc3-c3ccccc3)CC2)o1 [Example 7.02.234]
8,242 nM,Cc1nc2c(s1)CN(C(=O)Cn1nc(-c3ccc(F)c(C)c3)cc1C)C2 [Example 7.01.062]
9,915 nM,COc1ccc(-c2cc(C(C)C)n(CC(=O)N3CCc4cc(OC)ccc4C3)n2)cc1 [Example 7.02.039]
10,11 nM,COc1cc(C2=CCN(C(=O)Cn3nc(-c4ccc(F)c(C)c4)cc3-c3ccccc3)CC2)ncn1 [Example 7.02.022]
11,33 nM,Cc1cc(-c2cc(-c3ccccc3)n(CC(=O)N3CCc4ncnc(-c5ccccc5)c4CC3)n2)ccc1F [Example 7.01.092]
12,183 nM,Cc1cc(-c2cc(C3CCCCC3)n(CC(=O)N3CCc4nc(N)sc4CC3)n2)ccc1F [Example 7.02.050]
13,58 nM,CCc1cc(-c2ccc(F)c(C)c2)nn1CC(=O)N1CCN(c2cccc(OC)c2)C(=O)C1 [Example 7.02.027]
14,1740 nM,COc1ccc(-c2cc(C(C)C)n(CC(=O)N3CCc4nc(C)oc4C3)n2)cc1 [Example 7.02.043]
15,120 nM,CCc1cc(-c2cccc(C)c2)nn1CC(=O)N1CC=C(c2cc(OC)ncn2)CC1 [Example 7.02.093]
16,43 nM,CCc1cc(-c2ccc(F)c(C)c2)nn1CC(=O)N1CCN(c2noc(C)n2)CC1 [Example 7.02.196]
17,236 nM,CCc1cc(-c2ccc(C)c(F)c2)nn1CC(=O)N1Cc2nc(C)oc2C1 [Example 7.02.245]
18,35 nM,COCc1nnc(C2CCN(C(=O)Cn3nc(-c4ccc(F)c(C)c4)cc3-c3ccccc3)CC2)o1 [Example 7.02.227]
19,30 nM,Cc1cc(-c2cc(-c3ccccc3)n(CC(=O)N3CCc4cc(=O)n(C)nc4CC3)n2)ccc1F [Example 7.01.081]
20,170 nM,Cc1cc(-c2cc(-c3ccccc3)n(CC(=O)N3CCc4nc(N)sc4CC3)n2)ncc1F [Example 7.02.156]

# Reference: patent US8741892B2, “Compounds” (Boehringer Ingelheim International GmbH, priority 2011, dated 2014)
